Here are results for four molecules from publication PMC8674378 (Journal of the American Chemical Society, 2021).

The subject of one data set is soybeans. Conditions: cited from earlier work.
The target of another data set is SceAHAS (Saccharomyces cerevisiae, UniProt P07342). Nature of the data set: biochemical.
A further data set concerns the target T1, ScsAHAS (Sclerotinia sclerotiorum, UniProt A7EMK2).
T1 sequence (A7EMK2 30-699): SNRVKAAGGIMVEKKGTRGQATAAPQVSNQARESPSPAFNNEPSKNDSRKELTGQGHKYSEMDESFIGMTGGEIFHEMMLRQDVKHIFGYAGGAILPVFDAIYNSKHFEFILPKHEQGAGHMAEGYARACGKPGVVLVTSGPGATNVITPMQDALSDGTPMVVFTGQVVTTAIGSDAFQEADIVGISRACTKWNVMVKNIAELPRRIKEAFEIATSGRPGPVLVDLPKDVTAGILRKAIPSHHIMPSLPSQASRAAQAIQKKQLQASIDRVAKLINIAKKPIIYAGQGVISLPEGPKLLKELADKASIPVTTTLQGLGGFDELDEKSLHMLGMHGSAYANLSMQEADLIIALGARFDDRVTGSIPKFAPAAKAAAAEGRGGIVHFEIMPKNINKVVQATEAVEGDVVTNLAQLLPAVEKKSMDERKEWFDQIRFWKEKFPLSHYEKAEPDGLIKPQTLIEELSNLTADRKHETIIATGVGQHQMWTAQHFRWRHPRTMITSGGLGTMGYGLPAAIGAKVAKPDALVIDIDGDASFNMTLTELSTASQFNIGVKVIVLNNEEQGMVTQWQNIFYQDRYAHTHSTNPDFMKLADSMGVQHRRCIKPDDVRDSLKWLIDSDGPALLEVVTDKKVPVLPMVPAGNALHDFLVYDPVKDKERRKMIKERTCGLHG
Nature of the data set: AHAS enzyme inhibition assay. It is filed as biochemical, S. sclerotiorum 1980 UF-70.

The next data set deals with ThAHAS. Nature of the data set: AHAS enzyme inhibition assay. It is filed as biochemical, Trichoderma afroharzianum t-22.
A further data set addresses (UniProt Z9DR95LUB2). Nature of the data set: AHAS enzyme inhibition assay. Type of data set: biochemical, Trichoderma afroharzianum t-22.
For data set [1], the system named is S. cerevisiae Δilv2 strain with AHAS complementation. Type of data set: cell-based. Conditions: under assay concentrations, even in Ile and Val supplemented growth media.
The next data set deals with ThAHAS^M. Nature of the data set: AHAS enzyme inhibition assay. It is filed as biochemical, Trichoderma afroharzianum t-22. To be noted: for IC50: [E]=0.5 μM.
In a further data set the test system is F. oxysporum. Nature of the data set: Antifungal resazurin assay. It is filed as cell-based.
A further data set has as its target T2, AtAHAS (Arabidopsis thaliana, UniProt P17597).
T2 sequence (P17597 56-670): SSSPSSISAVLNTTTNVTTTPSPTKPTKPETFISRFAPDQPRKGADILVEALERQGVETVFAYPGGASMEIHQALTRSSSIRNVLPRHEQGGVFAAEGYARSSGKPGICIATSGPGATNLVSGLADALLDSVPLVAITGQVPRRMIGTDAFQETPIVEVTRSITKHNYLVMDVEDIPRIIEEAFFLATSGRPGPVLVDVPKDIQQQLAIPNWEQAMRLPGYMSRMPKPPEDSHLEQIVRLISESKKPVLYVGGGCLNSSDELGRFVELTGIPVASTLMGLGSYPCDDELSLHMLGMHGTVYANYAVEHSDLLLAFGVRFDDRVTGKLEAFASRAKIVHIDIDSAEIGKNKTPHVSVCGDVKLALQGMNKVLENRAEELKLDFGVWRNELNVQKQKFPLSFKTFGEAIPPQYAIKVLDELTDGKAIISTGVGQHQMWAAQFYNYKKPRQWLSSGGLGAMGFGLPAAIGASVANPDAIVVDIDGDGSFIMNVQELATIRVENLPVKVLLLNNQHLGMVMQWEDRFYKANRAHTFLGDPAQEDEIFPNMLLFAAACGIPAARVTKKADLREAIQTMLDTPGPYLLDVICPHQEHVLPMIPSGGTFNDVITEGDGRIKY
Nature of the data set: AHAS enzyme inhibition assay. Type of data set: biochemical.

For another data set, the system named is Rhizoctonia solani. Conditions: plant pathogenic fungus; cited from earlier work.
The subject of another data set is Sclerotinia sclerotiorum. To be noted: plant pathogenic fungus; cited from earlier work.
The target of the next data set is FuoAHAS (Fusarium oxysporum, UniProt X0CFW6). Nature of the data set: AHAS enzyme inhibition assay. Type of data set: biochemical, F. oxysporum NRRL 32931.
The target in the next data set is T3, ThAHAS K247A (Trichoderma afroharzianum, UniProt A0ABF7PL51, K247A).
T3 sequence (A0ABF7PL51 53-689 K247A): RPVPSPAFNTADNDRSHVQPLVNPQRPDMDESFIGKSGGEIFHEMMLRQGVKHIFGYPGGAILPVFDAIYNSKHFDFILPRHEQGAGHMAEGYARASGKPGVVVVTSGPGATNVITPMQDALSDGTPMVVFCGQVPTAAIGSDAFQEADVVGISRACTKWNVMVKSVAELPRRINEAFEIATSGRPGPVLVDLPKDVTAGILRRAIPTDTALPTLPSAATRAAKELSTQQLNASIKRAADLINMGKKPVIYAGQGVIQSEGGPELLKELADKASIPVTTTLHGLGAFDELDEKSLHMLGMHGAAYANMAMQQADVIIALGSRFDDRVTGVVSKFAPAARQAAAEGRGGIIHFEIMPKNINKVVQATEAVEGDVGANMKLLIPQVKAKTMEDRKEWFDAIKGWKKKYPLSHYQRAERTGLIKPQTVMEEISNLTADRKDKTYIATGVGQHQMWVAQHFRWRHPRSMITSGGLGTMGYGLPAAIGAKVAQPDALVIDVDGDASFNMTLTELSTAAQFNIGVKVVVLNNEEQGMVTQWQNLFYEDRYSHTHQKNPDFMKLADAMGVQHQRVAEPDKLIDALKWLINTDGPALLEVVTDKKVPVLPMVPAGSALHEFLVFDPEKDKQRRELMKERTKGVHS
Nature of the data set: AHAS enzyme inhibition assay, K247A mutant. Type of data set: biochemical, Trichoderma afroharzianum t-22.

For the next data set, the system named is canola seedlings. Conditions: higher (10–100 μg) doses, petri dishes; cited from earlier work.
A further data set has as its target CalAHAS. To be noted: cited from earlier work.
Data set [2] has as its system S. cerevisiae Δilv2 strain expressing ThAHAS^M. Nature of the data set: Yeast growth inhibition in Ile and Val dropout medium. To be noted: Δilv2 complemented with ThAHAS^M. It is filed as cell-based.
Data set [3] concerns S. cerevisiae BJ5464-NpgA. The description is as above. Type of data set: cell-based. Conditions: parent yeast strain.
For data set [4], the system named is S. cerevisiae Δilv2 strain expressing AtAHAS. Described as above. Conditions: Δilv2 complemented with AtAHAS. It is filed as cell-based.
Data set [5] relates to S. cerevisiae Δilv2 strain expressing ThAHAS. The data set is described as above. It is filed as cell-based. To be noted: Δilv2 complemented with ThAHAS.

By Ki is commonly meant a measure of affinity in units of concentration, obtained from inhibition or displacement. For orientation: IC50 means the midpoint of a concentration-inhibition curve.

≈ marks a conversion by molar mass, not a printed value.

Chain of SceAHAS (P07342 91-687): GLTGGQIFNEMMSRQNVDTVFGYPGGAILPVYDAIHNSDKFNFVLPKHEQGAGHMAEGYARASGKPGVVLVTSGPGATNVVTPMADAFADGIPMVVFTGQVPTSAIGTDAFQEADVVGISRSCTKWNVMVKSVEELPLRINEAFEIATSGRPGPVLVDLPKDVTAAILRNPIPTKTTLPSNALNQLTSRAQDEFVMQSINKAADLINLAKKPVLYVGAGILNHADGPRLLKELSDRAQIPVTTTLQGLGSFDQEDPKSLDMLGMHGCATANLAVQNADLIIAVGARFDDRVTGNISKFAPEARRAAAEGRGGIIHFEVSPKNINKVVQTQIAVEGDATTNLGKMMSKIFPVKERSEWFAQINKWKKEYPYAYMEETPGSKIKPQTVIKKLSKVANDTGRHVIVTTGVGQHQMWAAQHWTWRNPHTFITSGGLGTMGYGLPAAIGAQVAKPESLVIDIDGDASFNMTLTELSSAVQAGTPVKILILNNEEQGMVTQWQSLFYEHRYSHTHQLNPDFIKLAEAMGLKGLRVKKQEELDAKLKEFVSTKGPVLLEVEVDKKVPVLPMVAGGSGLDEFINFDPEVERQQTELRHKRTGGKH

Consider `CCCC=CC=CC(=O)C1=C(O)C(CC(O)(C(=O)O)C(C)C)N(C)C1=O` (stereo not shown) [HA, harzianic acid], for which the “increase of production of soybean pods and seeds” value in the data set on soybeans (field conditions) was 5–10%. In the data set with soybeans (soybeans, greenhouse conditions), the “improvement of stem lengths” value is recorded as greater than 40%. Besides, the Ki on SceAHAS is roughly 83 µM; at ScsAHAS, 11 µM; on (UniProt Z9DR95LUB2) it was 6.65 µM; at ThAHAS^M it was 3.39 µM; on FuoAHAS it was 14 µM. Besides, the “preferential binding, fold lower in Ki” value in the data set on ThAHAS (filamentous fungal AHAS over yeast SceAHAS) is greater than 10 fold. In addition, the toxicity towards yeast result in data set [1] was “general toxicity”. Moreover, the half-maximal inhibitory concentration (IC50) against ThAHAS^M was 20 µM; with F. oxysporum (Fusarium oxysporum, 48 h, read-out: IC50 of growth inhibition), roughly 26 µg/mL (≈ 71.1 µM); against ThAHAS K247A, 162 µM. Moreover, the inhibition of growth result in the data set with F. oxysporum (grown in the presence of BCAAs (Leu, Ile and Val), RPMI 1640, 48h) is on record as “inhibition of growth was only observed at very high concentrations”. Also, the “inhibition of plant AtAHAS” value on AtAHAS is listed as “No inhibition”. Besides, the antifungal activity entry in the data set on Rhizoctonia solani and with Sclerotinia sclerotiorum was “antifungal activity” each time. Besides, on ThAHAS K247A (K247A versus ThAHAS), the “fold increase in IC50 by K247A mutation” value worked out at 4 fold. Also, the “effect on growth of canola seedlings” value in the data set with canola seedlings is reported as “growth inhibition”.
Turning to `COc1cc(OC)n2nc(S(=O)(=O)Nc3c(Cl)ccc(C)c3Cl)nc2n1` [MT, metosulam], on CalAHAS, the Ki result was “low nanomolar”.
Consider `COC(=O)c1ccccc1S(=O)(=O)NC(=O)Nc1nc(C)cc(C)n1` [SM, sulfometuron methyl, reference compound], for which the “sensitivity of ScsAHAS” value at ScsAHAS (in vitro assay conditions) is reported as “completely insensitive”. The same molecule gave an IC50 against ThAHAS of roughly 0.35 µM. The “inhibition of ThAHAS^M” value in the data set with ThAHAS^M (even at elevated concentration (100 μM)) was “no inhibition”. Also, the growth inhibition result is reported as “minimal sensitivity” in data set [2], “potently inhibited” in data set [3], “potently inhibited” in data set [4] and “potently inhibited” in data set [5]. Besides, at FuoAHAS (in vitro assay conditions), the “sensitivity of FuoAHAS” value is “completely insensitive”.
For the molecule `CCCC=CC=CC(=O)C1=C(O)C(CC(O)(C(=O)O)C(C)C)NC1=O` (stereo not shown) [compound 5, demethylharzianic acid], inhibition at ThAHAS^M was half-maximal at 37 µM (IC50).
